Converted amounts (≈) assume the structure as drawn.
Columns and labels:
Format in all cases: functional
[1] = test system: Pichia kudriavzevii; experiment: Antifungal activity against Candida krusei Berkout KCCM 11655 after 1 day by twofold broth dilution method; settings: Berkout KCCM 11655, 24 h
[2] = test system: Candida albicans; experiment: Antifungal activity against Candida albicans Berkout KCCM 50235 after 1 day by twofold broth dilution method; settings: Berkout KCCM 50235, 24 h
[3] = test system: Aspergillus niger; experiment: Antifungal activity against Aspergillus niger KCTC 1231 after 2 days by twofold broth dilution method; settings: KCTC 1231, 48 h
[4] = test system: Aspergillus flavus; experiment: Antifungal activity against Aspergillus flavus KCCM 11899 after 2 days by twofold broth dilution method; settings: KCCM 11899, 48 h
[5] = test system: Candida tropicalis; experiment: Antifungal activity against Candida tropicalis Berkout KCCM 50662 after 1 day by twofold broth dilution method; settings: Berkout KCCM 50662, 24 h
[6] = test system: Cryptococcus neoformans; experiment: Antifungal activity against Cryptococcus neoformans KCCM 50564 after 1 day by twofold broth dilution method; settings: KCCM 50564, 24 h

SMILES | MIC [1] | MIC [2] | MIC [3] | MIC [4] | MIC [5] | MIC [6]
COC(=O)c1cc2c(s1)C(=O)c1c(C(C)=O)c3cc(Cl)ccn3c1C2=O | 50 µg/mL (≈ 129 µM) | 50 µg/mL (≈ 129 µM) | 6.3 µg/mL (≈ 16.2 µM) | 12.5 µg/mL (≈ 32.2 µM) | 25 µg/mL (≈ 64.5 µM) | 12.5 µg/mL (≈ 32.2 µM)
COC(=O)c1cc2c(s1)C(=O)c1c(C(C)=O)c3ccc(C)cn3c1C2=O | 50 µg/mL (≈ 136 µM) | 12.5 µg/mL (≈ 34 µM) | 6.3 µg/mL (≈ 17.1 µM) | 12.5 µg/mL (≈ 34 µM) | 25 µg/mL (≈ 68 µM) | 12.5 µg/mL (≈ 34 µM)
CCc1ccc2c(C(C)=O)c3c(n2c1)C(=O)c1cc(C(=O)OC)sc1C3=O | 50 µg/mL (≈ 131 µM) | 12.5 µg/mL (≈ 32.8 µM) | 12.5 µg/mL (≈ 32.8 µM) | 6.3 µg/mL (≈ 16.5 µM) | 50 µg/mL (≈ 131 µM) | 6.3 µg/mL (≈ 16.5 µM)
COC(=O)c1cc2c(s1)C(=O)c1c(C(C)=O)c3cc(C#N)ccn3c1C2=O | 25 µg/mL (≈ 66.1 µM) | 25 µg/mL (≈ 66.1 µM) | 12.5 µg/mL (≈ 33 µM) | 12.5 µg/mL (≈ 33 µM) | 25 µg/mL (≈ 66.1 µM) | 6.3 µg/mL (≈ 16.7 µM)
COC(=O)c1cc2c(s1)C(=O)c1c(C(C)=O)c3ccc(F)cn3c1C2=O | 25 µg/mL (≈ 67.3 µM) | 50 µg/mL (≈ 135 µM) | 50 µg/mL (≈ 135 µM) | 50 µg/mL (≈ 135 µM) | 25 µg/mL (≈ 67.3 µM) | 50 µg/mL (≈ 135 µM)
COC(=O)c1cc2c(s1)C(=O)c1c(C(C)=O)c3ccc(Cl)cn3c1C2=O | 6.3 µg/mL (≈ 16.2 µM) | 12.5 µg/mL (≈ 32.2 µM) | 12.5 µg/mL (≈ 32.2 µM) | 25 µg/mL (≈ 64.5 µM) | 3.2 µg/mL (≈ 8.25 µM) | 3.2 µg/mL (≈ 8.25 µM)
COC(=O)c1cc2c(s1)C(=O)c1c(C(C)=O)c3ccc(Br)cn3c1C2=O | 6.3 µg/mL (≈ 14.6 µM) | 6.3 µg/mL (≈ 14.6 µM) | 6.3 µg/mL (≈ 14.6 µM) | 12.5 µg/mL (≈ 28.9 µM) | 12.5 µg/mL (≈ 28.9 µM) | 1.6 µg/mL (≈ 3.7 µM)
COC(=O)c1cc2c(s1)C(=O)c1c(C(=O)OC)c3ccccn3c1C2=O | 50 µg/mL (≈ 135 µM) | 50 µg/mL (≈ 135 µM) | 25 µg/mL (≈ 67.7 µM) | 12.5 µg/mL (≈ 33.8 µM) | 25 µg/mL (≈ 67.7 µM) | 12.5 µg/mL (≈ 33.8 µM)
CCOC(=O)c1c2c(n3ccccc13)C(=O)c1cc(C(=O)OC)sc1C2=O | 12.5 µg/mL (≈ 32.6 µM) | 50 µg/mL (≈ 130 µM) | 12.5 µg/mL (≈ 32.6 µM) | 50 µg/mL (≈ 130 µM) | 12.5 µg/mL (≈ 32.6 µM) | 50 µg/mL (≈ 130 µM)
CCOC(=O)c1c2c(n3cc(C)ccc13)C(=O)c1cc(C(=O)OC)sc1C2=O | 25 µg/mL (≈ 62.9 µM) | 25 µg/mL (≈ 62.9 µM) | 25 µg/mL (≈ 62.9 µM) | 6.3 µg/mL (≈ 15.9 µM) | 12.5 µg/mL (≈ 31.5 µM) | 12.5 µg/mL (≈ 31.5 µM)
CCOC(=O)c1c2c(n3ccc(OC)cc13)C(=O)c1cc(C(=O)OC)sc1C2=O | 100 µg/mL (≈ 242 µM) | 50 µg/mL (≈ 121 µM) | 100 µg/mL (≈ 242 µM) | 50 µg/mL (≈ 121 µM) | 50 µg/mL (≈ 121 µM) | 50 µg/mL (≈ 121 µM)
CCOC(=O)c1c2c(n3ccc(C#N)cc13)C(=O)c1cc(C(=O)OC)sc1C2=O | 50 µg/mL (≈ 122 µM) | 12.5 µg/mL (≈ 30.6 µM) | 3.2 µg/mL (≈ 7.84 µM) | 50 µg/mL (≈ 122 µM) | 12.5 µg/mL (≈ 30.6 µM) | 25 µg/mL (≈ 61.2 µM)
CCOC(=O)c1c2c(n3cc(F)ccc13)C(=O)c1cc(C(=O)OC)sc1C2=O | 12.5 µg/mL (≈ 31.1 µM) | 6.3 µg/mL (≈ 15.7 µM) | 50 µg/mL (≈ 125 µM) | 12.5 µg/mL (≈ 31.1 µM) | 50 µg/mL (≈ 125 µM) | 12.5 µg/mL (≈ 31.1 µM)
CCOC(=O)c1c2c(n3cc(Cl)ccc13)C(=O)c1cc(C(=O)OC)sc1C2=O | 6.3 µg/mL (≈ 15.1 µM) | 6.3 µg/mL (≈ 15.1 µM) | 6.3 µg/mL (≈ 15.1 µM) | 25 µg/mL (≈ 59.8 µM) | 6.3 µg/mL (≈ 15.1 µM) | 25 µg/mL (≈ 59.8 µM)
CCOC(=O)c1c2c(n3cc(Br)ccc13)C(=O)c1cc(C(=O)OC)sc1C2=O | 12.5 µg/mL (≈ 27 µM) | 3.2 µg/mL (≈ 6.92 µM) | 3.2 µg/mL (≈ 6.92 µM) | 1.6 µg/mL (≈ 3.46 µM) | 1.6 µg/mL (≈ 3.46 µM) | 1.6 µg/mL (≈ 3.46 µM)
COC(=O)c1cc2c(OC)ccc(OC)c2s1 | 50 µg/mL (≈ 198 µM) | 100 µg/mL (≈ 396 µM) | 100 µg/mL (≈ 396 µM) | 100 µg/mL (≈ 396 µM) | > 100 µg/mL | > 100 µg/mL
COC(=O)c1cc2c(s1)C(=O)C(Cl)=C([n+]1ccc(Cl)cc1)C2=O.[Cl-] | 50 µg/mL | 12.5 µg/mL | 3.2 µg/mL | 12.5 µg/mL | 25 µg/mL | 12.5 µg/mL
COC(=O)c1cc2c(s1)C(=O)C(Cl)=C([n+]1ccc(C#N)cc1)C2=O.[Cl-] | 50 µg/mL | 25 µg/mL | 3.2 µg/mL | 6.3 µg/mL | 50 µg/mL | 6.3 µg/mL
CCc1ccc[n+](C2=C(Cl)C(=O)c3sc(C(=O)OC)cc3C2=O)c1.[Cl-] | 50 µg/mL | 50 µg/mL | 6.3 µg/mL | 12.5 µg/mL | 25 µg/mL | 12.5 µg/mL
COC(=O)c1cc2c(s1)C(=O)C(Cl)=C([n+]1ccc(OC)cc1)C2=O.[Cl-] | 50 µg/mL | 100 µg/mL | 100 µg/mL | 50 µg/mL | 50 µg/mL | 50 µg/mL
COC(=O)c1cc2c(s1)C(=O)C(Cl)=C([n+]1cccc(Cl)c1)C2=O.[Cl-] | 3.2 µg/mL | 3.2 µg/mL | 3.2 µg/mL | 3.2 µg/mL | 1.6 µg/mL | 50 µg/mL
COC(=O)c1cc2c(s1)C(=O)C(Cl)=C([n+]1cccc(Br)c1)C2=O.[Cl-] | 25 µg/mL | 50 µg/mL | 12.5 µg/mL | 50 µg/mL | 50 µg/mL | 50 µg/mL
OC(Cn1cncn1)(Cn1cncn1)c1ccc(F)cc1F [FLUCONAZOLE] | 25 µg/mL (≈ 81.6 µM) | 50 µg/mL (≈ 163 µM) | 6.3 µg/mL (≈ 20.6 µM) | 25 µg/mL (≈ 81.6 µM) | 3.2 µg/mL (≈ 10.4 µM) | 6.3 µg/mL (≈ 20.6 µM)
Nc1nc(=O)[nH]cc1F [FLUCYTOSINE] | 6.3 µg/mL (≈ 48.8 µM) | 3.2 µg/mL (≈ 24.8 µM) | 6.3 µg/mL (≈ 48.8 µM) | 25 µg/mL (≈ 194 µM) | 6.3 µg/mL (≈ 48.8 µM) | 6.3 µg/mL (≈ 48.8 µM)
